Data on six molecules can be found in patent US20070196902A1, “Method of detecting AZT resistance in HIV” (University of Pittsburgh, priority 2006, published 2007).

Read-outs that look alike come from different tables or passages of the source.

The subject of assay [1] is HIV-1 RT mutants with A371V and/or Q509L, alone or in combination with TAMs. The experiment in a line: Drug susceptibility of site-directed mutants, comparisons between mutants with and without A371V/Q509L. The class given is cell-based. As to conditions: D67N/K70R/A371V/Q509L and D67N/K70R/T215F/A371V/Q509L.
The next assay deals with HIVLAI RT D67N/K70R. The experiment in a line: Drug susceptibility assay in P4/R5 cells, site-directed mutant. The following applies: for Fold-Resistance: D67N/K70R compared to wild-type; for IC50: D67N/K70R, mean ± SD. In kind it is cell-based, HIV-1. The method, then: (§1) Drug susceptibility assays. NRTI susceptibility was determined in P4/R5 cells as described previously (Parikh, U. M., et al. 2005. Antimicrob. Agents Chemother. 49:1139-44). Briefly, threefold dilutions of inhibitor were added to P4/R5 cells in triplicate and cells were infected with an amount of virus that produced 100 relative units of light (RLU) in no drug, virus control wells. After 48 hours, the cells were lysed (Gal-Screen; Tropix/Applied Biosystems, Foster City, Calif.) and the RLU was measured using a ThermoLabSystems luminometer (Waltham, Mass.). The IC50 and fold-resistance were calculated as described above. IC50 values from at least three independent experiments were log10 transformed and compared for statistically significant differences using the two-sample Student's t test.
(§2) Construction of mutant recombinant HIV-1. Mutant recombinant plasmid clones of virus were generated by oligonucleotide site-directed mutagenesis as described previously (Shi, C., and J. W. Mellors. 1997. A recombinant retroviral system for rapid […] analysis of human immunodeficiency virus type 1 susceptibility to reverse transcriptase inhibitors. Antimicrob. Agents Chemother. 41:2781-5), using the p6HRT-MO plasmid. p6HRT-MO contains the entire RT and protease coding sequence as previously described (Le Grice, S. F., and F. Gruninger-Leitch. 1990. Rapid purification of homodimer and heterodimer HIV-1 reverse transcriptase by metal chelate affinity chromatography. Eur. J. Biochem. 187:307-14) and four silent restriction sites (Xma I, Mlu I, Xba I, and NgoM IV from the 5′ to 3′ end of RT at codons 14, 358, 490 and 554, respectively). After site-directed mutagenesis (QIAamp kit, QIAGEN, Valencia, Calif.), the mutated RT was ligated into pxxHIV-1LAI MO that contains the entire genome of HIV-1LAI and the same silent restriction sites as p6HRT-MO. Infectious virus was generated by electroporating the mutated xxHIV-1LAI MO plasmid into MT-2 cells as described above. All mutations in recombinant viruses were confirmed by full-length sequencing of the entire RT coding region.

The subject of assay [2] is HIVLAI RT D67N/K70R/T215F/A371V/Q509L. The assay is described as above. As to conditions: for Fold-Resistance: D67N/K70R/T215F/A371V/Q509L compared to wild-type; for cross-resistance compared with viruses without A371V/Q509L: HIV-1 containing D67N/K70R/T215F/A371V/Q509L; for IC50: D67N/K70R/T215F/A371V/Q509L, mean ± SD. The class given is cell-based, HIV-1. The method, then: as §1, §2

For assay [3], the system named is HIVLAI RT D67N/K70R/T215F. The description is as above. In kind it is cell-based, HIV-1. The following applies: for Fold-Resistance: D67N/K70R/T215F compared to wild-type; for IC50: D67N/K70R/T215F, mean ± SD. On the procedure: as §1, §2
The subject of assay [4] is HIVLAI RT D67N/K70R/A371V/Q509L. The description is as above. As to conditions: for Fold-Resistance: D67N/K70R/A371V/Q509L compared to wild-type; for IC50: D67N/K70R/A371V/Q509L, mean ± SD. The class given is cell-based, HIV-1. The method, then:
as §1, §2

In another assay the test system is Wild-type HIVLAI. Nature of the assay: Drug susceptibility assay in P4/R5 cells, recombinant virus. The class given is cell-based, HIV-1. The method, then: as §1, §2
Assay [5] deals with HIV-1 RT mutations D549N and H539N. As to conditions: cited from earlier work.
For assay [6], the system named is HIV-1 RT D549N with TAMs D67N, K70R, T215Y and K219Q. As to conditions: D549N present with TAMs D67N; cited from earlier work.
The next assay concerns HIV-1 RT H539N. The following applies: H539N mutation; cited from earlier work.
The test system of a further assay is HIV-1 RT D549N. The following applies: D549N mutation; cited from earlier work.
The mark [7] stands for this setting: Human immunodeficiency virus 1, P4/R5.

For `Nc1nc(NC2CC2)c2ncn([C@H]3C=C[C@@H](CO)C3)c2n1` [abacavir], in assay [1], the “cross-resistance of viruses with A371V and Q509L in combination with TAMs compared with those with only TAMs” value is given as “Statistically significant increases in cross-resistance”. For the same molecule, the Fold-Resistance in the assay on HIVLAI RT D67N/K70R is recorded as 1.2 fold; in assay [2], 3.0 fold; in assay [3] it was 2.4 fold; in [4], 2.0 fold. Besides, the IC50 in the assay with HIVLAI RT D67N/K70R (setting [7]) was 7.9 ± 0.4 µM; in assay [2] (setting [7]) it was 19 ± 4.5 µM; in [3] (setting [7]) it was 15 ± 1.5 µM; in assay [4] (setting [7]), 13 ± 2.5 µM; in the assay with Wild-type HIVLAI (setting [7]) it was 6.4 ± 0.5 µM. The “cross-resistance compared with viruses without A371V/Q509L” value in assay [2] was “greater cross-resistance”.

Regarding `O=c1[nH]cnc2c1ncn2[C@H]1CC[C@@H](CO)O1` [didanosine], the Fold-Resistance with HIVLAI RT D67N/K70R worked out at 1.2 fold; in assay [2] it was 1.6 fold; in assay [3], 1.6 fold; in assay [4], 1.2 fold. Besides, the concentration for half-maximal inhibition (IC50) in the assay with HIVLAI RT D67N/K70R (setting [7]) stood at 5 ± 0.9 µM; in [2] (setting [7]) it was 6.6 ± 0.4 µM; in [3] (setting [7]), 6.8 ± 0.3 µM; in assay [4] (setting [7]), 4.9 ± 0.9 µM; in the assay with Wild-type HIVLAI (setting [7]), 4.2 ± 0.9 µM. Also, the “effect of the mutations on susceptibility” value in assay [5] is “no effect”.

As to `O=C1Nc2ccc(Cl)cc2[C@@](C#CC2CC2)(C(F)(F)F)O1` [efavirenz], the “effect of the mutations on susceptibility” value in assay [5] was “no effect”.

Take `Nc1ccn([C@@H]2CS[C@H](CO)O2)c(=O)n1` [lamivudine]: the Fold-Resistance in the assay with HIVLAI RT D67N/K70R is recorded as 1.9 fold; in assay [2] it was 15 fold; in assay [3] it was 7.0 fold; in [4], 5.2 fold. The IC50 amounted to 1 ± 0.3 µM in the assay on HIVLAI RT D67N/K70R (setting [7]); 7.5 ± 1.8 µM in assay [2] (setting [7]); 3.8 ± 0.59 µM in assay [3] (setting [7]); 2.7 ± 1.4 µM in assay [4] (setting [7]); 0.5 ± 0.1 µM with Wild-type HIVLAI (setting [7]).

For `Cc1cn([C@H]2C=C[C@@H](CO)O2)c(=O)[nH]c1=O` [stavudine], in [6], the increase in resistance is on record as 12.5 fold. Further, the “increase in resistance (reduced susceptibility)” value with HIV-1 RT H539N is reported as 10 fold; with HIV-1 RT D549N, 2,4 fold. In addition, the Fold-Resistance was 1.4 fold in the assay on HIVLAI RT D67N/K70R, 2.0 fold in assay [2], 2.4 fold in [3] and 1.3 fold in assay [4]. Besides, the concentration for half-maximal inhibition (IC50) was 10 ± 3.1 µM in the assay on HIVLAI RT D67N/K70R (setting [7]); 14 ± 4.4 µM in assay [2] (setting [7]); 17 ± 4.6 µM in assay [3] (setting [7]); 9.6 ± 2.9 µM in [4] (setting [7]); 7.2 ± 0.6 µM with Wild-type HIVLAI (setting [7]).

Take `C[C@H](Cn1cnc2c(N)ncnc21)OCP(=O)(O)O` [tenofovir]: the “cross-resistance of viruses with A371V and Q509L in combination with TAMs compared with those with only TAMs” value in assay [1] is recorded as “trend toward decreased susceptibility”. The Fold-Resistance came to 1.5 fold with HIVLAI RT D67N/K70R, 2.7 fold in [2], 1.5 fold in [3] and 2.2 fold in [4]. The IC50 was found to be 4.9 ± 1.5 µM in the assay with HIVLAI RT D67N/K70R; 9 ± 3.5 µM in [2]; 4.9 ± 0.7 µM in [3]; 7.3 ± 1.3 µM in assay [4]; 3.3 ± 0.9 µM in the assay on Wild-type HIVLAI (Wild-type HIVLAI RT, mean ± SD, at least 3 independent experiments, read-out: IC50). The “cross-resistance compared with viruses without A371V/Q509L” value in assay [2] is “greater cross-resistance”.

A word on the IC50: it is the concentration that gives 50% inhibition.
